{
  "source": "paper PMC8185074",
  "about": "“Anchor extension: a structure-guided approach to design cyclic peptides targeting enzyme active sites” (Nature Communications, 2021)",
  "key": {"HDAC6": {"target": "T1, HDAC6 (Homo sapiens, UniProt Q9UBN7)", "T1 construct": "purchased Reaction Biology Corporation (assay run by the CRO)", "T1 sequence (Q9UBN7 1-1215)": "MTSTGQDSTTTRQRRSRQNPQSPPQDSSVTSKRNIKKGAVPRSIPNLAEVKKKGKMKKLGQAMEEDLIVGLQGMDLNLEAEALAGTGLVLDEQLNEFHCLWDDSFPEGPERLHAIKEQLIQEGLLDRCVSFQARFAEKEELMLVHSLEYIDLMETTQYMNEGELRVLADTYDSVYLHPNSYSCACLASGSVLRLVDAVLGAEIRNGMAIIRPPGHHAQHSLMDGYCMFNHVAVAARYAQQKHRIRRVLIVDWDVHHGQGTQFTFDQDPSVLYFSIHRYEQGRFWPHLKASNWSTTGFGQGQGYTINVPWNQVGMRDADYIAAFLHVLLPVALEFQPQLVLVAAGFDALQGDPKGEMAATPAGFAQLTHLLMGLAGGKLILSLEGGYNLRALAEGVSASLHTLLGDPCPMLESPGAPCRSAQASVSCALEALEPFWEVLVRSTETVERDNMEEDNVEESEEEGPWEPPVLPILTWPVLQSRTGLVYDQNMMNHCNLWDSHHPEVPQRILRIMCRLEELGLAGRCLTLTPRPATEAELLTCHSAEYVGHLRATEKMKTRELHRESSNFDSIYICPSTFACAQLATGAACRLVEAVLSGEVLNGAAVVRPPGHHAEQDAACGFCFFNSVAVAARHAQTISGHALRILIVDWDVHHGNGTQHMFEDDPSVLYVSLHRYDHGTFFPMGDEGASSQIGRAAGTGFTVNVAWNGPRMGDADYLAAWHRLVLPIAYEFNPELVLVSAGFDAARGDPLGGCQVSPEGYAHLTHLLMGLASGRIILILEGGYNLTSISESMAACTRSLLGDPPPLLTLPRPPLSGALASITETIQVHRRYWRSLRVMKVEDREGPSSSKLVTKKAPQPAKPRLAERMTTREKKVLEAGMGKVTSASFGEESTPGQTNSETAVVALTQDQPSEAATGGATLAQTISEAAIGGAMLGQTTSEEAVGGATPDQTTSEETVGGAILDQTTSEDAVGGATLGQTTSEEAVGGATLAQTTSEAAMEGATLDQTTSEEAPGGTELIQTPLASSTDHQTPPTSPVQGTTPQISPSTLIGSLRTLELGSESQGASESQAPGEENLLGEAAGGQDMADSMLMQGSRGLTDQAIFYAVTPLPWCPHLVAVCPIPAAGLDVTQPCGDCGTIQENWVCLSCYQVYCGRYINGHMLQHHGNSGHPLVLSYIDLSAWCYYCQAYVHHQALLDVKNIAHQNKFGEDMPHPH", "test": "HDAC6 inhibition, full IC50 measurement (Reaction Biology; fluorogenic p53 peptide RHKK(Ac)AMC)", "assay_type": "biochemical", "summary_of_the_method": "(§1)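 The reaction was a 1 h, 30 °C incubation of enzyme, acoustically added peptide and 50 μM p53-derived AMC substrate in pH 8.0 Tris buffer with NaCl, KCl, MgCl2, 1 mg/ml BSA and 1% DMSO. Duplicate values were averaged.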"}, "HDAC3": {"target": "T2, HDAC3 (Homo sapiens, UniProt O15379)", "T2 construct": "purchased Reaction Biology Corporation (assay run by the CRO)", "T2 sequence (O15379 whole entry)": "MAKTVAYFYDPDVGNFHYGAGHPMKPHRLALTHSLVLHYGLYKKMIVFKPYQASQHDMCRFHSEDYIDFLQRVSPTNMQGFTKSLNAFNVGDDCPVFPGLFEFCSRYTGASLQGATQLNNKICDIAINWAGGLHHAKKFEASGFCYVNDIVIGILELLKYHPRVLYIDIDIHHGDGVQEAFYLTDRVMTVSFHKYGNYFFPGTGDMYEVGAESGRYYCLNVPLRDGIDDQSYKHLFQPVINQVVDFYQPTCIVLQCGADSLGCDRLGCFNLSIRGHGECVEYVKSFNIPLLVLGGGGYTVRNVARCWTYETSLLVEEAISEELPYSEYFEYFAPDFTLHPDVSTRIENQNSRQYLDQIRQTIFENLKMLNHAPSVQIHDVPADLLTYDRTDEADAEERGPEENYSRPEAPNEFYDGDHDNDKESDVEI", "T2 sequence (Q9Y618 395-489 partner limits assumed)": "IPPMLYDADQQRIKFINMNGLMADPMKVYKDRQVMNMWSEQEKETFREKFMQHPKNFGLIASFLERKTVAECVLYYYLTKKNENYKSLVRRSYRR", "test": "HDAC3 inhibition, full IC50 measurement (Reaction Biology; fluorogenic p53 peptide RHKK(Ac)AMC)", "assay_type": "biochemical", "summary_of_the_method": "as §1"}},
  "note": "Peptide text beside a SMILES is read from it.",
  "data": [
    {"smiles": "NCCCC[C@H]1NC(=O)[C@H](CCC(N)=O)NC(=O)[C@H](CCC(=O)O)NC(=O)[C@@H]2CCCN2C(=O)[C@H](CC(N)=O)NC(=O)[C@H](CCCCCS)NC(=O)CNC(=O)[C@H](Cc2c[nH]c3ccccc23)NC1=O", "note": "[des1.1.1, SHA-Asn-Pro-Glu-Gln-dLys-Trp-Gly] (HELM PEPTIDE1{E.Q.[dK].W.G.[O=C([C@H](CCCCCS)N[*:1])[*:2]].N.P}$PEPTIDE1,PEPTIDE1,1:R1-8:R2$$$V2.0)", "values": [
      {"measurement": "HDAC6 activity raw data (signal)", "setting": "HDAC6; Conc. 1.00E-05 M, t1", "result": 2105},
      {"measurement": "HDAC6 activity raw data (signal)", "setting": "HDAC6; Conc. 1.11E-06 M, t1", "result": 66521},
      {"measurement": "HDAC6 activity raw data (signal)", "setting": "HDAC6; Conc. 1.11E-06 M, t2", "result": 22362},
      {"measurement": "HDAC6 activity raw data (signal)", "setting": "HDAC6; Conc. 1.23E-07 M, t1", "result": 195275},
      {"measurement": "HDAC6 activity raw data (signal)", "setting": "HDAC6; Conc. 1.23E-07 M, t2", "result": 111620},
      {"measurement": "HDAC6 activity raw data (signal)", "setting": "HDAC6; Conc. 1.37E-08 M, t1", "result": 384422},
      {"measurement": "HDAC6 activity raw data (signal)", "setting": "HDAC6; Conc. 1.37E-08 M, t2", "result": 355429},
      {"measurement": "HDAC6 activity raw data (signal)", "setting": "HDAC6; Conc. 1.52E-09 M, t1", "result": 513045},
      {"measurement": "HDAC6 activity raw data (signal)", "setting": "HDAC6; Conc. 1.52E-09 M, t2", "result": 553965},
      {"measurement": "HDAC6 activity raw data (signal)", "setting": "HDAC6; Conc. 3.33E-06 M, t1", "result": 30608},
      {"measurement": "HDAC6 activity raw data (signal)", "setting": "HDAC6; Conc. 3.70E-07 M, t1", "result": 121302},
      {"measurement": "HDAC6 activity raw data (signal)", "setting": "HDAC6; Conc. 3.70E-07 M, t2", "result": 45275},
      {"measurement": "HDAC6 activity raw data (signal)", "setting": "HDAC6; Conc. 4.12E-08 M, t1", "result": 327835},
      {"measurement": "HDAC6 activity raw data (signal)", "setting": "HDAC6; Conc. 4.12E-08 M, t2", "result": 217932},
      {"measurement": "HDAC6 activity raw data (signal)", "setting": "HDAC6; Conc. 4.57E-09 M, t1", "result": 470518},
      {"measurement": "HDAC6 activity raw data (signal)", "setting": "HDAC6; Conc. 4.57E-09 M, t2", "result": 472349},
      {"measurement": "HDAC6 activity raw data (signal)", "setting": "HDAC6; Conc. 5.08E-10 M, t1", "result": 541421},
      {"measurement": "HDAC6 activity raw data (signal)", "setting": "HDAC6; Conc. 5.08E-10 M, t2", "result": 570888},
      {"measurement": "HDAC3 activity raw data (signal)", "setting": "HDAC3; Conc. 1.00E-05 M, t1", "result": 45806},
      {"measurement": "HDAC3 activity raw data (signal)", "setting": "HDAC3; Conc. 1.00E-05 M, t2", "result": 14609},
      {"measurement": "HDAC3 activity raw data (signal)", "setting": "HDAC3; Conc. 1.11E-06 M, t1", "result": 200334},
      {"measurement": "HDAC3 activity raw data (signal)", "setting": "HDAC3; Conc. 1.11E-06 M, t2", "result": 152988},
      {"measurement": "HDAC3 activity raw data (signal)", "setting": "HDAC3; Conc. 1.23E-07 M, t1", "result": 623414},
      {"measurement": "HDAC3 activity raw data (signal)", "setting": "HDAC3; Conc. 1.23E-07 M, t2", "result": 515219},
      {"measurement": "HDAC3 activity raw data (signal)", "setting": "HDAC3; Conc. 1.37E-08 M, t1", "result": 834270},
      {"measurement": "HDAC3 activity raw data (signal)", "setting": "HDAC3; Conc. 1.37E-08 M, t2", "result": 1063632},
      {"measurement": "HDAC3 activity raw data (signal)", "setting": "HDAC3; Conc. 1.52E-09 M, t1", "result": 943875},
      {"measurement": "HDAC3 activity raw data (signal)", "setting": "HDAC3; Conc. 1.52E-09 M, t2", "result": 1416606},
      {"measurement": "HDAC3 activity raw data (signal)", "setting": "HDAC3; Conc. 3.33E-06 M, t1", "result": 128090},
      {"measurement": "HDAC3 activity raw data (signal)", "setting": "HDAC3; Conc. 3.33E-06 M, t2", "result": 52786},
      {"measurement": "HDAC3 activity raw data (signal)", "setting": "HDAC3; Conc. 3.70E-07 M, t1", "result": 393148},
      {"measurement": "HDAC3 activity raw data (signal)", "setting": "HDAC3; Conc. 3.70E-07 M, t2", "result": 276336},
      {"measurement": "HDAC3 activity raw data (signal)", "setting": "HDAC3; Conc. 4.12E-08 M, t1", "result": 758574},
      {"measurement": "HDAC3 activity raw data (signal)", "setting": "HDAC3; Conc. 4.12E-08 M, t2", "result": 884895},
      {"measurement": "HDAC3 activity raw data (signal)", "setting": "HDAC3; Conc. 4.57E-09 M, t1", "result": 936051},
      {"measurement": "HDAC3 activity raw data (signal)", "setting": "HDAC3; Conc. 4.57E-09 M, t2", "result": 1217433},
      {"measurement": "HDAC3 activity raw data (signal)", "setting": "HDAC3; Conc. 5.08E-10 M, t1", "result": 935427},
      {"measurement": "HDAC3 activity raw data (signal)", "setting": "HDAC3; Conc. 5.08E-10 M, t2", "result": 1315263}
    ]}
  ]
}
